According to US12023384B2, “Immunogenic peptides comprising an MHC class II T cell epitope and a redox motif” (IMCYSE SA, priority 2014, dated 2024):
No end group written: not given here.

Columns and labels:
[1] = tested on: polyclonal CD4+CD25− cells obtained from animals in which EAE is effective; assay: Bystander suppression assay with T cell line from immunised mice; format: cell-based, C57BL/6 mice; details: CD4+ T cell line from mice immunised 3 x 20 μg sc on aluminium hydroxide, after four re-stimulations
Experimental: Groups of C57BL/6 mice are immunised subcutaneously (20 μg) with the peptide of example 1 which contains the modified sequence motif [SEQ ID NO: 1] or control peptide [SEQ ID NO: 2, 4 or 7] adsorbed onto aluminium hydroxide. Three injections are performed at 2-week intervals. Ten days after the last immunisation, mice are sacrificed and CD4+ T cells (2×10^6 cells) are prepared from the spleen using magnetic beads. CD4+ T cells are then stimulated in vitro by the MOG T cell epitope (20 μg/ml) presented by adherent spleen cells (2×10^6 cells).
After four re-stimulations, a T cell line is tested in a bystander suppression assay with, as target cells, polyclonal CD4^+CD25^− cells obtained from animals in which EAE (Experimental autoimmune encephalomyelitis) is effective.

[2] = Evaluation of reductase activity on a synthetic peptide (fluorescence de-quenching); format: biochemical; details: peptide 25 μM, 2.5 μM (FITC-Gly-Cys-Asp)ox, PBS, 40 minutes, 25° C., fluorescence 530 nm
Experimental: The reductase activity of the peptides is determined using a fluorescent described in Tomazzolli et al. (2006) Anal. Biochem. 350, 105-112. Two peptides with a FITC label become self-quenching when they covalently attached to each other via a disulfide bridge. Upon reduction by a peptide in accordance with the present invention, the reduced individual peptides become fluorescent again.
Control experiments were performed with a peptide with a “normal” reducing peptide, i.e. a peptide with a redox motif but without additional histidine and with a peptide comprising no redox motif.
A FITC -NH-Gly-Cys-Asp-COOH peptide was synthesized (Eurogentec, Belgium) and self-quenched by solubilization in DMSO ((FITC-Gly-Cys-Asp)ox). The reduction of 2.5 μM (FITC-Gly-Cys-Asp)ox was followed on a 96 well plate during 40 minutes (25° C.) after incubation in PBS with peptide (25 μM) as listed in the accompanying table, or with 2 mM Dithiothreitol (DTT). Reduction was measured as a function of increase in fluorescence read at 530 nm after excitation at 494 nm, using a CytoFluor® multiplate reader (Applied Biosystems). Results are shown in the table of example 10 under the heading “Reductase activity”.

Human recombinant CD4 = Human recombinant CD4 (Homo sapiens, UniProt P01730); assay: Polymerization of human recombinant CD4 (non-reducing PAGE); format: biochemical; design: key: The Table indicates whether or not a polymerization had occurred (+); details: 50 μM peptide, 300 ng recCD4, Hepes buffer, 15 minutes at 68° C.
Experimental: Fifty μM of DTT is used as a positive control under the same conditions. LDS sample buffer (7.5 μl; non-reducing) is then added to 15 μl of the peptide/CD4 mixture. The mixture is then submitted to non-reducing PAGE. After Coomassie Blue staining, protein bands are analyzed for the presence of monomeric, dimeric or multimeric recCD4, as identified by the decreased migratory capacities into the gel. The Table indicates whether or not a polymerization had occurred (+).

| Reductase activity (%) [2] | CD4 polymerisation (Human recombinant CD4) | Substance | capacity to induce death in target cells [1] |
| --- | --- | --- | --- |
| 75% | + | AAACHPCVRSLQPLALEGSLQKRG (proinsulin) [SEQ ID NO: 112, reference compound] |  |
| 64% | + | AAHCHPCVRSLQPLALEGSLQKRG (proinsulin) [SEQ ID NO: 113] |  |
| 6% | + | AAACPYCVRSLQPLALEGSLQKRG (proinsulin) [SEQ ID NO: 111, reference compound] |  |
| 22% | low | AAACHGCVRSLQPLALEGSLQKRG (proinsulin) [SEQ ID NO: 114, reference compound] |  |

The remaining lines, values behind:

| Substance | Reductase activity (%) [2] | CD4 polymerisation (Human recombinant CD4) | capacity to induce death in target cells [1] |
| --- | --- | --- | --- |
| CPYCSRVVHLYRNGKD (CPYCSRVVHLYRNGKD-NH2; cysteine pairing not given here) [SEQ ID NO: 7, reference compound] |  |  | have the capacity to induce death in target cells |
| AHACPYCVRSLQPLALEGSLQKRG (proinsulin) [SEQ ID NO: 110] | 13% | + |  |
| HAACPYCVRSLQPLALEGSLQKRG (proinsulin) [SEQ ID NO: 109] | 0% | + |  |
| HCPYCSRVVHLYRNGKD [SEQ ID NO: 1] |  |  | have the capacity to induce death in target cells |
| H CPYCVRSLQPLALEGSLQKRG (HCPYCVRSLQPLALEGSLQKRG; proinsulin) [SEQ ID NO: 108] | 68% | + |  |
